{"source": "patent US20100267795A1", "about": "“NITROSUBSTITUTED ARYLOXYALKYLIMIDAZOLINES FOR USE AS PESTICIDES” (SYNGENTA CROP PROTECTION, INC., priority 2007, published 2010)", "format_in_all_cases": "in vivo", "key": {"[1]": {"system": "Heliothis virescens (tobacco budworm)", "assay": "Heliothis virescens (tobacco budworm) egg/larva test on artificial diet", "settings": "for control (egg mortality, larval mortality, growth regulation): 200 ppm by pipetting, eggs 0-24 h old on artificial diet, 4 days incubation; for mortality at 200 ppm: Heliothis virescens, read-out: control (egg mortality, larval mortality, growth regulation)", "description": "Eggs (0-24 h old) were placed in 24-well microtiter plate on artificial diet and treated with test solutions at an application rate of 200 ppm by pipetting. After an incubation period of 4 days, samples were checked for egg mortality, larval mortality, and growth regulation. The following compounds gave 100% control: 1.003 and 1.009. The following compounds gave 80% control: 1.001, 1.004, 1.005, 1.008 and 1.016. The following compounds gave 50% control: 1.013 and 1.017."}, "[2]": {"system": "Myzus persicae (green peach aphid)", "assay": "Myzus persicae (green peach aphid) pea seedling root uptake test", "settings": "for control (mortality): 24 ppm test solution, roots of infested pea seedlings, 6 days after introduction; for mortality at 24 ppm: Myzus persicae, 144 h, read-out: control (mortality)", "from_the_text": "Roots of pea seedlings, infested with an aphid population of mixed ages, were placed directly in the test solutions of 24 ppm. 6 days after introduction, samples were checked for mortality. The following compounds gave 100% control: 1.004 and 1.012. The following compounds gave 80% control: 1.001, 1.002, 1.009, 1.013 and 1.016. The following compound gave 50% control: 1.003."}, "[3]": {"system": "Myzus persicae (green peach aphid)", "assay": "Myzus persicae (green peach aphid) sunflower leaf disc spray test", "settings": "for control (mortality): 200 ppm spray on sunflower leaf discs, aphid population of mixed ages, 6 DAT; for mortality at 200 ppm: Myzus persicae, foliar, 144 h, read-out: control (mortality)", "description": "Sunflower leaf discs were placed on agar in a 24-well microtiter plate and sprayed with test solutions at an application rate of 200 ppm. After drying, the leaf discs were infested with an aphid population of mixed ages. After an incubation period of 6 DAT, samples were checked for mortality. The following compounds gave 100% control: 1.001, 1.002, 1.003, 1.004, 1.005, 1.006, 1.008, 1.009, 1.012, 1.013, 1.014, 1.016, 1.017 and 1.018. The following compounds gave 80% control: 1.007 and 1.011. The following compound gave 50% control: 1.010"}, "[4]": {"system": "Tetranychus urticae (two-spotted spider mite)", "assay": "Tetranychus urticae (two-spotted spider mite) bean leaf disc spray test", "settings": "for mortality at 200 ppm: Tetranychus urticae, foliar, 192 h, read-out: control (egg mortality, larval mortality, adult mortality)", "from_the_text": "Bean leaf discs on agar in 24-well microtiter plates wer sprayed with test solutions at an application rate of 200 ppm. After drying, the leaf discs are infested with mite populations of mixed ages. 8 days later, discs are checked for egg mortality, larval mortality, and adult mortality. The following compounds gave 100% control: 1.001, 1.002, 1.003, 1.004, 1.006, 1.008, 1.009, 1.010, 1.012, 1.013, 1.014, 1.016, 1.017 and 1.018. The following compound gave 50% control: 1.011."}}, "data": [{"smiles": "CCCCC(Oc1cccc([N+](=O)[O-])c1C)C1=NCCN1", "note": "(stereo not drawn) [Compound 1.005]", "values": [{"measurement": "control (egg mortality, larval mortality, growth regulation)", "setting": "[1]", "result": 80, "unit": "%"}]}, {"smiles": "CCC(Oc1cccc([N+](=O)[O-])c1C)C1=NCCN1", "note": "(stereo not drawn) [Compound 1.001]", "values": [{"measurement": "control (egg mortality, larval mortality, growth regulation)", "setting": "[1]", "result": 80, "unit": "%"}, {"measurement": "control (mortality)", "setting": "[2]", "result": 80, "unit": "%"}]}, {"smiles": "Cc1c(OC(C2=NCCN2)C(C)C)cccc1[N+](=O)[O-]", "note": "(stereo not drawn) [Compound 1.002]", "values": [{"measurement": "control (mortality)", "setting": "[2]", "result": 80, "unit": "%"}]}, {"smiles": "CCC(Oc1cccc([N+](=O)[O-])c1C)C1=NCCN1C(=O)OC(C)(C)C", "note": "(stereo not drawn) [Compound 1.007]", "values": [{"measurement": "control (mortality)", "setting": "[3]", "result": 80, "unit": "%"}]}, {"smiles": "COCC(Oc1cccc([N+](=O)[O-])c1Cl)C1=NCCN1", "note": "(stereo not drawn) [Compound 1.017]", "values": [{"measurement": "control (egg mortality, larval mortality, growth regulation)", "setting": "[1]", "result": 50, "unit": "%"}]}, {"smiles": "CCC(Oc1cccc([N+](=O)[O-])c1Cl)C1=NCCN1", "note": "(stereo not drawn) [Compound 1.008, 2-[1-(2-Chloro-3-nitro-phenoxy)-propyl]-4,5-dihydro-1H-imidazole]", "values": [{"measurement": "mortality at 200 ppm", "setting": "[3]", "result": 100, "unit": "%"}, {"measurement": "mortality at 200 ppm", "setting": "[1]", "result": 80, "unit": "%"}, {"measurement": "mortality at 200 ppm", "setting": "[4]", "result": 100, "unit": "%"}]}, {"smiles": "CCCC(Oc1cccc([N+](=O)[O-])c1C)C1=NCCN1", "note": "(stereo not drawn) [Compound 1.004]", "values": [{"measurement": "control (egg mortality, larval mortality, growth regulation)", "setting": "[1]", "result": 80, "unit": "%"}, {"measurement": "control (mortality)", "setting": "[2]", "result": 100, "unit": "%"}]}, {"smiles": "C=CCC(Oc1cccc([N+](=O)[O-])c1C)C1=NCCN1", "note": "(stereo not drawn) [Compound 1.013]", "values": [{"measurement": "control (egg mortality, larval mortality, growth regulation)", "setting": "[1]", "result": 50, "unit": "%"}, {"measurement": "control (mortality)", "setting": "[2]", "result": 80, "unit": "%"}]}, {"smiles": "CCCC(Oc1cccc([N+](=O)[O-])c1Cl)C1=NCCN1C(=O)OC(C)(C)C", "note": "(stereo not drawn) [Compound 1.010]", "values": [{"measurement": "control (mortality)", "setting": "[3]", "result": 50, "unit": "%"}]}, {"smiles": "CCCC(Oc1cccc([N+](=O)[O-])c1Cl)C1=NCCN1", "note": "(stereo not drawn) [Compound 1.009]", "values": [{"measurement": "control (egg mortality, larval mortality, growth regulation)", "setting": "[1]", "result": 100, "unit": "%"}, {"measurement": "control (mortality)", "setting": "[2]", "result": 80, "unit": "%"}]}, {"smiles": "CCC(Oc1cccc([N+](=O)[O-])c1Cl)C1=NCCN1C(=O)OC(C)(C)C", "note": "(stereo not drawn) [Compound 1.011]", "values": [{"measurement": "control (mortality)", "setting": "[3]", "result": 80, "unit": "%"}, {"measurement": "control (egg mortality, larval mortality, adult mortality)", "setting": "[4]; 200 ppm spray on bean leaf discs, mite populations of mixed ages, 8 days", "result": 50, "unit": "%"}]}, {"smiles": "COCC(Oc1cccc([N+](=O)[O-])c1C)C1=NCCN1", "note": "(stereo not drawn) [Compound 1.012, 2-[2-Methoxy-1-(2-methyl-3-nitro-phenoxy)-ethyl]-4,5-dihydro-1H-imidazole]", "values": [{"measurement": "mortality at 200 ppm", "setting": "[3]", "result": 100, "unit": "%"}, {"measurement": "mortality at 200 ppm", "setting": "[4]", "result": 100, "unit": "%"}, {"measurement": "mortality at 24 ppm", "setting": "[2]", "result": 100, "unit": "%"}]}, {"smiles": "Cc1c(OC(C2=NCCN2)C2CC2)cccc1[N+](=O)[O-]", "note": "(stereo not drawn) [Compound 1.003]", "values": [{"measurement": "control (egg mortality, larval mortality, growth regulation)", "setting": "[1]", "result": 100, "unit": "%"}, {"measurement": "control (mortality)", "setting": "[2]", "result": 50, "unit": "%"}]}, {"smiles": "C=CCC(Oc1cccc([N+](=O)[O-])c1Cl)C1=NCCN1", "note": "(stereo not drawn) [Compound 1.016, 2-[1-(2-Chloro-3-nitro-phenoxy)-but-3-enyl]-4,5-dihydro-1H-imidazole]", "values": [{"measurement": "mortality at 200 ppm", "setting": "[3]", "result": 100, "unit": "%"}, {"measurement": "mortality at 200 ppm", "setting": "[1]", "result": 80, "unit": "%"}, {"measurement": "mortality at 200 ppm", "setting": "[4]", "result": 100, "unit": "%"}, {"measurement": "mortality at 24 ppm", "setting": "[2]", "result": 80, "unit": "%"}]}]}
